{"source": "patent US11186581B2", "about": "“2-(1,3-dimethyl-2,6-dioxo-1,2,3,6-tetrahydro-7H-purin-7-yl)-N-(6-(2-hydroxyphenyl)pyridazin-3-yl)acetamide as a Wnt pathway modulator” (Agency for Science, Technology and Research, priority 2017, dated 2021)", "tested_on": "HEK293-STF3A cells", "assay": "STF3A assay (Wnt reporter luciferase)", "assay_type": "cell-based", "conditions": "Homo sapiens, 24 h, 1 day of treatment, read-out: IC50 activities on STF3A cells", "experimental": "HEK293-STF cell line was modified from Human embryonic kidney cell line HEK293 transfected with the STF reporter. HEK293-STF3 A cell line was further modified from HEK293-STF cell line to express Wnt3A. This cell line was used to identify compounds that regulate either early or late signalling components of the Wnt pathway. L-Wnt3 A (ATCC, #CRL-2647) cell line was used for providing Wnt3 A conditioned media. The three cell lines were grown in DMEM (Dulbecco's Modified Eagle Medium) with 10% FBS (fetal bovine serum) incubated in 37° C. with 5% CO2.\n2×10^4 HEK293-STF3A cells in 75 μl culture media were seeded in each well of white 96 well plates (Greiner #655098) and incubated overnight at 37° C. 25 μl serially diluted compound was added to the cells to give final concentration of 50 μM to 1.5 nM. After 1 day of treatment, 100 μl of Steady-Glo® Luciferase Assay reagent (#E2520, Promega) was added to each well and incubated for 10 minutes at room temperature. Luminescence was measured using Tecan Safire2® plate reader.", "data": [{"compound": "COc1ccccc1-c1ccc(NC(=O)Cn2cnc3c2c(=O)n(C)c(=O)n3C)nn1", "note": "[Compound 2, reference compound]", "values": [{"measurement": "IC50", "value": "> 10", "unit": "µM"}]}]}
